From US6890951B2, “Treatment of addiction and addiction-related behavior” (Brookhaven Science Associates LLC, priority 1998, dated 2005)
“Also recorded” adds a separate entry of the source.

Legend:
[1] = test system: extracellular DA in the NACC; test: Microdialysis: ethanol-induced increases in NACC DA; type: in vivo, rats; settings: Rattus norvegicus
freely moving rats = test: Cocaine-induced stereotypy after a sensitizing regimen of cocaine; type: in vivo
Method: The phenomenon of sensitization is observed with virtually all drugs of addiction. Sensitization is believed to play a role in the etiology of addiction.
Animals received 15 mg/kg i.p. of cocaine and stereotypy was determined in standard locomotor cages. For 6 consecutive days, animals received 15 mg/kg i.p. of cocaine once a day in their home cages. Eight days later, animals were rechallenged with 15 mg/kg i.p. of cocaine and stereotypy was determined. A five point rating scale was used to assess stereotypy and the rater was blind to the treatment received by each animal.

[2] = test system: extracellular DA in the NACC; test: In vivo microdialysis: nicotine-induced increases in extracellular NACC DA; design: species or system rats
Excerpt: All animals were used under an IACUC-approved protocol and with strict adherence to the NIH guidelines. Adult male Sprague-Dawley rats (200-300 g, Taconic Farms), housed in the animals care facility under 12:12 light/dark conditions, were placed into 6 groups (n=5-9), anesthetized and siliconized guide cannulae were stereotactically implanted into the right NACC (2.0 mm anterior and 1.0 mm lateral to bregms, and 7.0 mm ventral to the cortical surface) at least 4 days prior to study. […] Animals were placed in bowls, and probes were inserted and flushed with ACSF overnight. On the day of the study, a minimum of three samples were injected to determine baseline stability. Samples were collected for 20 min. and injected on-line (CMA/160, BAS). The average Dopamine concentration of these three stable samples was defined as control (100%), and all subsequent treatment values were transformed to a percentage of that control. […] The high performance liquid chromatography (HPLC) system consists of a BAS reverse-phase column (3.0 μC-18), a BAS LC-4C electrochemical transducer with a dual/glassy carbon electrode set at 650 mV, a computer that analyzes data on-line using a commercial software package (Chromograph Bioanalytical Systems), and a dual pen chart recorder. The mobile phase (flow rate 1.0 ml/min) consisted of 7.0% methanol, 50 mM sodium phosphate monobasic, 1.0 mM sodium octyl sulfate, and 0.1 mm EDNA, pH 4.0. […] Upon completion of the study, animals were decapitated and frozen sections were obtained for probe placement verification.
The open circles are control animals.
In all studies, animals were placed in the microdialysis bowls the night before the experiment and artificial cerebrospinal fluid (ACSF) was perfused through the microdialysis probes at a flow rate of 2.0 μl/min. At the end of each study, animals were sacrificed and their brains were removed and sectioned for probe placement verification.

male Sprague-Dawley rats = test: Locomotor activity (Photobeam Activity System); type: in vivo; settings: GVG 150 mg/kg or 300 mg/kg i.p., 2.5 hours before
Method: Animals were prehandled for 5 minutes each day for one week prior to the experiment to reduce handling stress. […] The animals were transported to the testing area one hour before each experiment. […] The locomotor cages themselves are 41.3×41.3×30.5 cm clear acrylic cages. The electronic system (Photobeam Activity system, San Diego Instruments, San Diego, Calif.) used to monitor locomotor activity consists of 16 infrared beams projecting across the cages from left to right and 16 beams from front to back. All the infrared beams are approximately 0.39 cm from the floor.
In this example the procedures outlined in Section 4 and 5 of Materials and Methods were followed.

[3] = test system: extracellular DA in the NACC; test: Microdialysis: methamphetamine-induced increases in NACC DA; type: in vivo, rats; settings: Rattus norvegicus
Excerpt: All animals were used under an IACUC-approved protocol and with strict adherence to the NIH guidelines. Adult male Sprague-Dawley rats (200-300 g, Taconic Farms), housed in the animals care facility under 12:12 light/dark conditions, were placed into 6 groups (n=5-9), anesthetized and siliconized guide cannulae were stereotactically implanted into the right NACC (2.0 mm anterior and 1.0 mm lateral to bregms, and 7.0 mm ventral to the cortical surface) at least 4 days prior to study. Microdialysis probes (2.0 mm, Bioanalytical Systems, BAS, West Lafayette, Ind.) were positioned within the guide cannulae and artificial cerebrospinal fluid (ACSF, 155.0 mM NA^−, 1.1 mM Ca^2−, 2.9 mM K^−, 132.76 mM Cl^−, and 0.83 mM Mg^2−) was administered through the probe using a CMA/100 microinfusion pump (BAS) at a flow rate of 2.0 μl/min. Animals were placed in bowls, and probes were inserted and flushed with ACSF overnight. On the day of the study, a minimum of three samples were injected to determine baseline stability. Samples were collected for 20 min. and injected on-line (CMA/160, BAS). The average Dopamine concentration of these three stable samples was defined as control (100%), and all subsequent treatment values were transformed to a percentage of that control. […] The high performance liquid chromatography (HPLC) system consists of a BAS reverse-phase column (3.0 μC-18), a BAS LC-4C electrochemical transducer with a dual/glassy carbon electrode set at 650 mV, a computer that analyzes data on-line using a commercial software package (Chromograph Bioanalytical Systems), and a dual pen chart recorder. The mobile phase (flow rate 1.0 ml/min) consisted of 7.0% methanol, 50 mM sodium phosphate monobasic, 1.0 mM sodium octyl sulfate, and 0.1 mm […], pH 4.0. DA eluted at 7.5 min. Upon completion of the study, animals were decapitated and frozen sections were obtained for probe placement verification.
Methamphetamine at a dose of 1.25 mg/kg i.p. and 2.5 mg/kg i.p. was administered to the animals. It was noted that methamphetamine elevated extracellular DA concentrations in the NACC by approximately 2500% over basal levels, 100 minutes following administration of 2.5 mg/kg and approximately 1500% over basal levels following administration of 1.25 mg/kg (FIG. 6). DA returned to basal levels approximately 200 minutes following administration.

Sprague-Dawley rats = test: Gross locomotor activity during microdialysis (infrared motion sensor); settings: GVG, during the 2.5 hour pretreatment interval

locomotor activity compared to saline pretreated controls (male Sprague-Dawley rats): did not alter locomotor activity | gross locomotor activity (Sprague-Dawley rats): did not alter gross locomotor activity
SMILES: C=CC(N)CCC(=O)O (racemic) [GVG, 4-amino-5-hexanoic acid]
inhibition at 300 mg/kg [1]: ~50% | inhibition at 100 mg/kg ([1]; read-out: inhibition of alcohol's ability to increase nucleus accumbens dopamine): ~40% | Stereotypies on Day 15 (freely moving rats; 150 mg/kg i.p. of GVG 2 hrs. before, cocaine 15 mg/kg i.p. rechallenge after sensitizing regimen): 2.3 ± 0.6 | expression of cocaine-induced sensitization (freely moving rats; GVG 150 mg/kg i.p. 2.5 hours prior to the cocaine challenge): abolished the expression of cocaine-induced sensitization | Stereotypy score on Day 1 (freely moving rats; cocaine 15 mg/kg i.p., baseline of the group later given GVG (no GVG on Day 1)): 2.9 ± 0.4 | basal DA levels prior to nicotine administration ([2]; GVG 75 mg/kg): no effect on basal DA levels | effect on nicotine-induced increases in DA ([2]; GVG 75 mg/kg i.p. 2.5 hours before nicotine 0.4 mg/kg): no effect | effect on nicotine-induced increases in DA ([2]; GVG 100 mg/kg i.p. 2.5 hours before nicotine 0.4 mg/kg): completely abolished; also recorded: completely blocked | effect on nicotine-induced increases in DA ([2]; GVG 100 mg/kg i.p. 2.5 hours before nicotine 0.4 mg/kg, listed as vigabatrin): completely blocked | effect on nicotine-induced increases in DA ([2]; GVG 150 mg/kg i.p. 2.5 hours before nicotine): blocks; also recorded: completely abolished | basal DA levels prior to nicotine administration ([2]; GVG 90, 100 or 150 mg/kg): lowered basal DA levels | inhibition at 90 mg/kg ([2]; Rattus norvegicus, ip, GVG 90 mg/kg i.p. 2.5 hours before nicotine 0.4 mg/kg): ~50% | effect on nicotine-induced increases in extracellular DA ([2]; chronically nicotine treated, GVG 100 mg/kg 2.5 hours prior to nicotine): completely abolished | nicotine-induced increase of extracellular DA above baseline ([2]; chronically nicotine treated, GVG 100 mg/kg 12 hours prior to challenge): approximately 25% | inhibition at 300 mg/kg [3]: ~38% | inhibition at 600 mg/kg [3]: ~58%
